The target in data set [1] is T1, M41Δ178 fusion protein (DP107 domain of HIV gp41) (Human immunodeficiency virus type 1 group M subtype B, UniProt P03377).
T1 construct: made by cloning the DNA fragment corresponding to gp41 amino acids 540-642 into the Xmn I site of pMal-p2; made in house
Description: biochemical. Format: binding, HIV-1. As to the method:
(§1) After incubation and washing, unbound Fab-d is removed from the plates and bound Fab-d is quantitated. A no-inhibitor control should also be conducted.
(§2) Such an assay takes advantage of accepted radioligand and receptor binding principles. (See, for example, Yamamura, H. I. et al., 1985, “Neurotransmitter Receptor Binding”, 2nd ed., Raven Press, NY.) As above, M41Δ78 is immobilized onto a solid support such as a microtiter well. […] Specific binding to M41Δ78 is defined as the difference of the binding of the labeled DP178 preparation in the microtiter wells (totals) and the binding in identical wells containing, in addition, excess unlabeled DP178 (nonspecifics).

Another data set relates to CEM cells. Put plainly: Cell proliferation and toxicity assay. The class given is cell-based. As to the method: (§3) Cell proliferation and toxicity assay: Approximately 3.8×10^5 CEM cells for each peptide concentration were incubated for 3 days at 37° C. in T25 flasks. Peptides tested were DP178 (SEQ ID NO:15) and DP-116 (SEQ ID NO:1552), as described in FIG. 1. Peptides were synthesized as described, above, in Section 6.1. The concentrations of each peptide used were 0, 2.5, 10, and 40 μg/ml. Cell counts were taken at incubation times of 0, 24, 48, and 72 hours.
(§4) CEM cells were incubated in the presence of varying concentrations of DP178 (SEQ ID NO:15), and DP-116 (SEQ ID NO:1552), a peptide previously shown to be ineffective as an HIV inhibitor (Wild, C. et al., 1992, Proc. Natl. Acad. Sci. USA 89:10,537-10,541). Additionally, cells were incubated in the absence of either peptide.

Data set [2] deals with T2, DP107-like domain of the RSV F1-protein (MF5.1 fusion protein) (Human respiratory syncytial virus A, UniProt P03420).
T2 construct: made in house
Put plainly: biochemical. Format: binding. Here is the method:
as §1, §2
Specifically, the DNA sequence corresponding amino acid residues 142-302 of the RSV F1 protein was amplified by PCR and cloned into the Xmn I site of the expression vector pMal-p2 (New England Biolab) to give MF5.1. These amino acid residues correspond to the extracellular domain of the RSV F1 protein including its DP107 region but excluding the DP178 region.
Cell fusion assays were performed with each of the peptides as described in Section 17 above.

Data set [3] has as its system HIV-1IIIB. Format: cell-based. The settings on record: HIV-1 induced membrane fusion; read-out: Cell Fusion (IC90). Here is the method:
Cell Fusion Assays For Anti-HIV Activity:
Cell fusion assays were performed as previously described (Matthews et al., 1987, Proc. Natl. Acad. Sci. USA 84: […]). CEM cells (7×10^4) were incubated with HIV-1IIIB chronically infected CEM cells (10^4) in 96-well flat-bottomed half-area plates (Costar) in 100 μl culture medium. Peptide and fusion proteins at various concentrations in 10 μl culture medium were incubated with the cell mixtures at 37° C. for 24 hours. Multinucleated syncytia were estimated with microscopic examination.

Data set [4] concerns HIV-1IIIB. To be noted: read-out: HIV-infectivity (IC90); HIV-1IIIB.
Data set [5] is described as follows: Cell proliferation and toxicity assay. Format: cell-based. To be noted: human, CEM cells. Here is the method:
as §3, §4

The next data set relates to HIV-1LAI. To be noted: FIG. 1 legend. As to the method:
Cell Free Virus Infection Assay:
Synthetic peptides were incubated at 37° C. with either 247 TCID50 (for experiment depicted in FIG. 2), or 62 TCID50 (for experiment depicted in FIG. 3) units of HIV-1LAI virus or 25 TCID50 units of HIV-2^NIHZ and CEM CD4^+ cells at peptide concentrations of 0, 0.04, 0.4, 4.0, and 40 μg/ml for 7 days. The resulting reverse transcriptase (RT) activity in counts per minute was determined using the assay described, below, in Section 6.1.5. See, Reed, L. J. et al., 1938, Am. J. Hyg. 27: 493-497 for an explanation of TCID50 calculations.
Reverse Transcriptase Assay:
The micro-reverse transcriptase (RT) assay was adapted from Goff et al. (Goff, S. et al., 1981, J. Virol. 38:239-248) and Willey et al. (Willey, R. et al., 1988, J. Virol. 62:139-147). Supernatants from virus/cell cultures are adjusted to 1% Triton-X100. A 10 μl sample of supernatant was added to 50 μl of RT cocktail in a 96-well U-bottom microtitre plate and the samples incubated at 37° C. for 90 min. The RT cocktail contained 75 mM KCl, 2 mM dithiothreitol, 5 mM MgCl2, 5 μg/ml poly A (Pharmacia, cat. No. 27-4110-01), 0.25 units/ml oligo dT (Pharmacia, cat. No. 27-7858-01), 0.05% NP40, 50 mM Tris-HCl, pH 7.8, 0.5 μM non-radioactive dTTP, and 10 μCi/ml ^32P-dTTP (Amersham, cat. No. PB. 10167).
After the incubation period, 40 μl of reaction mixture was applied to a Schleicher and Schuell (S+S) NA45 membrane (or DE81 paper) saturated in 2×SSC buffer (0.3 M NaCl and […] sodium citrate) held in a S+S Minifold over one sheet of GB003 (S+S) filter paper, with partial vacuum applied. Each well of the minifold was washed four times with 200 μl 2×SSC, under full vacuum. The membrane was removed from the minifold and washed 2 more times in a pyrex dish with an excess of 2×SSC. Finally, the membrane was drained on absorbent paper, placed on Whatman #3 paper, covered with Saran wrap, and exposed to film overnight at −70° C.
DP178 (SEQ ID NO:15) was next tested for its ability to block CD-4^+ CEM cell infection by cell-free HIV-1 virus. […]

Entries after “also recorded” stand apart in the source; their conditions may differ. Read-outs that look alike come from different tables or passages of the source.

T1 sequence (P03377 540-642, stated change not applied): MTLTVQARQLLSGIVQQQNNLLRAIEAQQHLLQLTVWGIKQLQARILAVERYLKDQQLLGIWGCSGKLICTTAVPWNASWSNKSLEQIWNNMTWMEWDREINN
T2 sequence (P03420 142-302): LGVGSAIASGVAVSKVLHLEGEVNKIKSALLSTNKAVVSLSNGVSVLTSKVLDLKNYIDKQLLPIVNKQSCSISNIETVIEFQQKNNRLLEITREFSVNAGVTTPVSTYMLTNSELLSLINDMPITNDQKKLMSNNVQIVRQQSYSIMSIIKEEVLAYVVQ

In the case of enfuvirtide, the Kd in data set [1] turned out to be 0.01 µM. In addition, the “% Viability” value in the data set on CEM cells (2.5 μg/ml, 0 hours) was 98%; with CEM cells (2.5 μg/ml, 24 hours) it was 93%; with CEM cells (2.5 μg/ml, 48 hours) it was 96%; in the data set on CEM cells (2.5 μg/ml, 72 hours), 96%; with CEM cells (10 μg/ml, 0 hours) it was 98%; in the data set on CEM cells (10 μg/ml, 24 hours) it was 97%. The “% Viability” value in the data set on CEM cells (10 μg/ml, 48 hours) amounted to 98%; in the data set with CEM cells (10 μg/ml, 72 hours), 98%; with CEM cells (40 μg/ml, 0 hours) it was 98%; in the data set on CEM cells (40 μg/ml, 24 hours), 97%; with CEM cells (40 μg/ml, 48 hours), 95%; with CEM cells (40 μg/ml, 72 hours), 97%. The “cytotoxic effects on cells in culture” value in the data set with CEM cells (CEM cells, up to 40 μg/ml, 3 days) is “non-cytotoxic; also recorded: no cytotoxic effects”.

Take “Ac-VYPSDEFDASISQVNEKINQALAYIRKADELLHNV-NH2 [Peptide T1091]”: in data set [2], the “binding affinity relative to T112” value is recorded as “approximately ten-fold less”.

With “Ac-NNLLRAIEAQQHLLQLTVWGIKQLQARILAVERYLKDQ-NH2 [DP107]”, the IC90 with HIV-1IIIB [3] and in the data set with HIV-1IIIB [4] was 1 µM each time.

In data set [5] (2.5 μg/ml, 0 hours), “Ac-LQARILAVERYLKDQQQ-NH2 [DP-116, reference compound]” had a viability at 0 h, 2.5 µg/mL of 98%. The substance further showed a viability at 24 h, 2.5 µg/mL in data set [5] (2.5 μg/ml, 24 hours) of 96%. In data set [5] (2.5 μg/ml, 48 hours), this substance showed a viability at 48 h, 2.5 µg/mL of 98%. The viability at 72 h, 2.5 µg/mL in data set [5] (2.5 μg/ml, 72 hours) is 99%. For the same substance, the viability at 0 h, 10 µg/mL in data set [5] (10 μg/ml, 0 hours) was 98%. In data set [5] (10 μg/ml, 24 hours), the viability at 24 h, 10 µg/mL is 95%. The substance also registered a viability at 48 h, 10 µg/mL in data set [5] (10 μg/ml, 48 hours) of 93%. The substance further yielded a viability at 72 h, 10 µg/mL in data set [5] (10 μg/ml, 72 hours) of 98%. The viability at 0 h, 40 µg/mL in data set [5] (40 μg/ml, 0 hours) turned out to be 98%. In data set [5] (40 μg/ml, 24 hours), this substance showed a viability at 24 h, 40 µg/mL of 95%. The same substance returned a viability at 48 h, 40 µg/mL in data set [5] (40 μg/ml, 48 hours) of 98%. Also, the viability at 72 h, 40 µg/mL in data set [5] (40 μg/ml, 72 hours) came out at 97%. Further, in the data set with HIV-1LAI, the “inhibition of HIV-1 cell free virus infection (in words)” value is listed as “negative for inhibition of HIV-1 infection”.

In general, Kd refers to the concentration at which binding is half-saturated. Lower therefore signals higher affinity. As a reminder, the IC90 is the concentration needed for an effect of 90%. The term viability denotes the share of living cells, or the viability signal relative to a control. High values mean better survival, low ones a greater loss of cells.

The values are drawn from patent publication US6623741B1, “Methods and compositions for inhibition of membrane fusion-associated events including RSV transmission” (Trimeris, Inc., priority 2000, dated 2003).
